The values below come from patent publication US12043670B2, “Anti-BCMA antibody-drug conjugates and methods of use” (Eisai R&D Management Co., Ltd., priority 2020, dated 2024).

One series has as its target T1, SF3b complex (Homo sapiens, UniProt O75533+Q7RTV0).
T1 construct: endogenous in cells; host or cells: nuclear extracts
Description: SF3B1 binding / scintillation proximity assay (SPA). As to conditions: competition with 2.5 nM [3H]-pladienolide B probe. On the procedure: A scintillation proximity assay was performed to measure the binding affinity of compounds (“payloads”) to the SF3b complex. Batch immobilization of anti-SF3B1 antibody (MBL) to anti-mouse PVT SPA scintillation beads (PerkinElmer) was prepared. For every 2.5 mg of nuclear extracts, 5 μg of anti-SF3B1 antibody and 1.5 mg of beads were mixed in 150 μL PBS. The antibody-bead mixture was incubated for 30 min at room temperature (RT) and centrifuged at 18,000 g for 5 min. 150 μL PBS was used to resuspend every 1.5 mg antibody-bead mixture. The beads were suspended and added to the prepared nuclear extracts. The slurry was incubated for 2 hours at 4° C. with gentle mixing. The beads were then collected by centrifuging at 18,000 g for 5 min, and washed twice with PBS+0.1% Triton X-100. After a final centrifugation step, every 1.5 mg of beads was suspended with 150 μL of PBS. SF3b complexes were tested for [^3H]-labeled pladienolide B probe binding ([^3H]-PB), synthesized as previously described (Kotake et al. (2007) Nat Chem Biol. 3(9):570-5). 100 μL binding reactions were prepared with 50 μL bead slurry and by adding varying concentrations of PB or PB-OH, and after 30 min pre-incubation, 2.5 nM of [^3H]-PB was added. The mixture was incubated for 30 min, and luminescence signals were read using a MicroBeta2 Plate Counter (PerkinElmer). […]
(In a scintillation proximity assay essentially only radioactivity close to the scintillant gives light.)

Series [1] relates to splicing of Ad2.1 pre-mRNA in HeLa nuclear extract. Description: In vitro splicing (IVS), qPCR readout, Ad2.1 substrate. In kind it is biochemical. The protocol: (§1) To evaluate payload activity in a cell-free system, an in vitro splicing assay was performed. The payloads were incubated with nuclear extracts and pre-mRNA substrate minigenes.
(§2) HeLa nuclear extract preparation: HeLa S3 cell pellets were resuspended in hypotonic buffer (10 mM HEPES pH 7.9, 1.5 mM MgCl2, 10 mM KCl, 0.2 mM PMSF, 0.5 mM DTT) and the suspension was brought up to a total of 5 packed cell volume (PCV). After centrifugation, the supernatant was discarded, and the cells were brought up to 3 PCV with hypotonic buffer and incubated on ice for 10 min. Cells were lysed using a dounce homogenizer and then centrifuged. The supernatant was discarded, and the pellet was resuspended with ½ packed nuclear volume (PNV) of low salt buffer (20 mM HEPES pH 7.9, 1.5 mM MgCl2, 20 mM KCl, 0.2 mM EDTA, 25% glycerol, 0.2 mM PMSF, 0.5 mM DTT), followed by ½ PNV of high salt buffer (same as low salt buffer except 1.4 M KCl). The nuclei were gently mixed for 30 min before centrifuging. The supernatant (nuclear extract) was then dialyzed into storage buffer (20 mM HEPES pH 7.9, 100 mM KCl, 0.2 mM EDTA, 20% glycerol, 0.2 mM PMSF, 0.5 mM DTT). Protein concentration was determined using NanoDrop 8000 UV-Vis spectrophotometer (ThermoFisher Scientific). […]
(Quantitative PCR measures a nucleic acid by following its amplification.)

The subject of series [2] is splicing of Ad2.2 pre-mRNA in HeLa nuclear extract. Description: In vitro splicing (IVS), qPCR readout, Ad2.2 substrate. In kind it is biochemical. The protocol: as §1, §2
The subject of another series is MM1.S cells. Description: CellTiter-Glo cell viability, MM1.S. In kind it is cell-based, human. To be noted: MM1.S, 96 h.
For another series, the system named is MM1.R cells. Description: CellTiter-Glo cell viability, MM1.R. To be noted: 96 h. In kind it is cell-based, human. Background: ATP-based viability assays read luminescence as a measure of living cells.
The test system of another series is OPM2 cells. Description: CellTiter-Glo cell viability, OPM2 (normal serum). In kind it is cell-based, human.
The next series relates to MOLP8 cells. Description: CellTiter-Glo cell viability, MOLP8. In kind it is cell-based, human.
The nature of the next series: Caco-2 permeability. The format is in vitro ADME. To be noted: human. On the procedure:
Caco-2 cells were cultured for 21 days in transwell 24-well plates at 37° C., 95% humidity, 5% CO2. Integrity of cell monolayer was confirmed by TEER (transepithelial electrical resistance) and Lucifer yellow. Payloads were spiked in duplicate at 10 μM, separately, on both sides of the cell monolayer. Permeability rates from the apical to basolateral (A-B) direction and the basolateral to apical (B-A) direction were determined by sampling aliquots from both chambers immediately after treatment (t=0) and following incubation for 2 hours. Samples were protein precipitated with organic solvent containing internal standard and analyzed by LC-MS/MS (SCIEX; API 5500). The area ratio responses of payload/internal standard over time in both directions were used to generate permeability (cm/sec) values. Efflux ratio was calculated by dividing B-A/A-B. Control compounds for low and high permeability and efflux behaved as expected.

A short description of another series: PAMPA permeability. To be noted: read-out: Stability, Mean, Perm PAMPA. In kind it is in vitro ADME.

What is called IC50 is the concentration that gives 50% inhibition. Read a high IC50 as lower potency. As a reminder, the GI50 is the concentration that inhibits growth by half. By efflux ratio is commonly meant the permeability from basolateral to apical divided by that in the opposite direction, in the common usage. As to `CC[C@H](O)[C@@H](C)[C@H]1O[C@@H]1C[C@@](C)(O)/C=C/C=C(\C)[C@H]1OC(=O)C[C@H](O)CC[C@@](C)(OC(C)=O)[C@@H](OC(=O)N2CCNCC2)/C=C/[C@@H]1C` [D2, (2S,3S,6S,7R,10R,E)-7-acetoxy-10-hydroxy-2-((R,2E,4E)-6-hydroxy-7-((2R,3R)-3-((2R,3S)-3-hydroxypentan-2-yl)oxiran-2-yl)-6-methylhepta-2,4-dien-2-yl)-3,7-dimethyl-12-oxooxacyclododec-4-en-6-ylpiperazine-1-carboxylate], the IC50 at SF3b complex worked out at 12.6 nM; in series [1], 27.3 nM; in series [2], 119 nM. The GI50 in the series on MM1.S cells (Homo sapiens, read-out: CTGlo Mean GI50 MM1.S 96 h) worked out at 1.69 nM; in the series with MM1.R cells (Homo sapiens, MM.1R, read-out: CTGlo Mean GI50 MM1.R 96 h) it was 7.59 nM; with OPM2 cells (Homo sapiens, OPM-2, 96 h, read-out: CTGlo Mean GI50 OPM2 96 h), 1.69 nM; with MOLP8 cells (Homo sapiens, MOLP-8, 96 h, read-out: CTGlo Mean GI50 MOLP8 96 h), 1.15 nM. The “CTGlo Mean LD50 MM1.S 96 h” value in the series with MM1.S cells (payload alone) is recorded as 7.74 nM. Also, the “CTGlo Mean LD50 MM1.R 96 h” value with MM1.R cells (payload alone, MM1.R) was found to be 21.4 nM. Further, the “CTGlo Mean LD50 OPM2 96 h” value with OPM2 cells (payload alone, OPM2, 96 h) turned out to be 7.74 nM. For the same compound, in the series with MOLP8 cells (payload alone, MOLP8, 96 h), the “CTGlo Mean LD50 MOLP8 96 h” value is given as 12.99 nM. Besides, the efflux ratio at 2 h, 10 μM in the series “Caco-2 permeability” (B-A/A-B) came to 9.4. For the same compound, the Papp A→B at 2 h, 10 μM in the series “Caco-2 permeability” (apical to basolateral, 10 μM, 2 hours, read-out: Permeability, Mean, Caco-2 A-B Perm) amounted to 0.94 ×10⁻⁶ cm/s. In the series “Caco-2 permeability” (basolateral to apical, 10 μM, 2 hours, read-out: Permeability, Mean, Caco-2 B-A Perm), the Papp B→A at 2 h, 10 μM stood at 0.1 ×10⁻⁶ cm/s. Further, in “PAMPA permeability”, the Papp is less than 0.1 ×10⁻⁶ cm/s.
